Entries after “also recorded” stand apart in the source; their conditions may differ. Bounds are passed on as bounds.

Assay [1] has as its system human islets. In words: Dynamic insulin secretion from perifused human islets kept at constant glucose. In kind it is cell-based. From the text: (§1) Islet Isolation. Islets were isolated as previously described (57). Monkey islets were isolated from cynomolgus monkeys (Macacca fascicularis) >4 years of age at the time of pancreas procurement, as previously described (58). Pig pancreata were procured from the local slaughterhouse. Mice (C57BL/6) and rat (Lewis rat; Harlan) islets were isolated using a rodent-islet isolation technique (59). All animal protocols were approved by the University of Miami Care and Use Committee. Human pancreatic islets were obtained from the Human Islet Cell Processing Facility at the Diabetes Research Institute, University of Miami Miller School of Medicine or from the Islet Cell Resource basic science islet distribution program, Islet Cell Resource Centers (ICRs) Consortium, Division of Clinical Research, National Center for Research Resources, National Institutes of Health. Human islets were dissociated into single cells using enzyme-free cell dissociation buffer (Invitrogen). Islets and islets cells from Q:1 all species were cultured identically (37° C. and 5% CO2) inCMRL Q:2 medium-1066 (Invitrogen), niacinamide (10 mM; Sigma), ITS (BD Biosciences), Zn2SO4 (15 μM, Sigma), GlutaMAX (2 mM; Invitrogen), Hepes (25 mM; Sigma), FBS (10%; Invitrogen), and penicillinstreptomycin (100 IU/mL-100 μg/mL; Invitrogen).
(§2) Insulin and Glucagon Secretion. Insulin and glucagon secretion were measured as previously described (8, 36). A high-capacity automated perifusion system was developed to dynamically measure hormone secretion from pancreatic islets. A low pulsatility peristaltic pump pushed Hepes-buffered solution (125 mM NaCl, 5.9 mM KCl, 2.56 mM CaCl2, 1 mM MgCl2, 25 mM Hepes, and 0.1% BSA, pH 7.4 at a perifusion rate of 100 μL/min) through a column containing 100 pancreatic islets immobilized in Bio-Gel P-4 Gel (BioRad). Except when otherwise stated, glucose concentration was adjusted to 3 mM for all experiments. Stimuli were applied with the perifusion buffer. The perifusate was collected in an automatic fraction collector designed for a 96-well plate format. The columns containing the islets and the perifusion solutions were kept at 37° C., and the perifusate in the collecting plate was kept at <4° C. Perifusates were collected every 1 min. Hormone release in the perifusate was determined with the human or mouse Endocrine LINCOplex Kit following manufacturer's instructions (Lincoresearch). Human islet preparations varied considerably in their quality. Thus, the magnitudes of the responses to different stimuli were compared with the same recording or using recordings from the same preparation.

The test system of assay [2] is human islets. Put plainly: Glucose-induced insulin secretion (glucose raised from 3 mM to 11 mM) in perifused human islets. The assay is classed as cell-based. To be noted: glucose 3 mM to 11 mM, MRS2159 10 μM, Brilliant Blue G 1 μM, KN-62 1 μM, reactive blue 2 50 μM, MRS2179 10 μM, CGS15943 10 μM, adenosine 100 μM.
Source text: as §1, §2

Assay [3] deals with human islets. Put plainly: ATP-induced (or α,β meATP-induced) insulin secretion in human islets with antagonists or blockers. The assay is classed as cell-based. To be noted: nominal 0 Ca2+ (+1 mM EGTA), ATP 10 μM, α,β meATP 100 μM.
Source text: as §1, §2

The subject of assay [4] is rat islets. Put plainly: Insulin secretion from perifused rat islets. As to conditions: 1-1,000 μM. In kind it is cell-based, rat (Lewis rat).
Source text: as §1, with “Islets and islets cells from Q:1 all species were cultured identically (37° C. and 5% CO2) inCMRL Q:2 medium-1066 (Invitrogen), niacinamide (10 mM; Sigma), ITS (BD Biosciences), Zn2SO4 (15 μM, Sigma), GlutaMAX (2 mM; Invitrogen), Hepes (25 mM; Sigma), FBS (10%; Invitrogen), and penicillinstreptomycin (100 IU/mL-100 μg/mL; Invitrogen).” left out
(§3) Insulin and Glucagon Secretion. Insulin and glucagon secretion were measured as previously described (8, 36). […] Hormone release in the perifusate was determined with the human or mouse Endocrine LINCOplex Kit following manufacturer's instructions (Lincoresearch). […]

Assay [5] concerns mouse islets. In words: Insulin secretion from perifused mouse islets. In kind it is cell-based, Mice (C57BL/6). To be noted: 1-1,000 μM.
Source text: as §1, with “Islets and islets cells from Q:1 all species were cultured identically (37° C. and 5% CO2) inCMRL Q:2 medium-1066 (Invitrogen), niacinamide (10 mM; Sigma), ITS (BD Biosciences), Zn2SO4 (15 μM, Sigma), GlutaMAX (2 mM; Invitrogen), Hepes (25 mM; Sigma), FBS (10%; Invitrogen), and penicillinstreptomycin (100 IU/mL-100 μg/mL; Invitrogen).” left out
as §3

Assay [6] deals with pig islets. Put plainly: Insulin secretion from perifused pig islets. The assay is classed as cell-based. As to conditions: 1-1,000 μM.
Source text: as §1, with “Islets and islets cells from Q:1 all species were cultured identically (37° C. and 5% CO2) inCMRL Q:2 medium-1066 (Invitrogen), niacinamide (10 mM; Sigma), ITS (BD Biosciences), Zn2SO4 (15 μM, Sigma), GlutaMAX (2 mM; Invitrogen), Hepes (25 mM; Sigma), FBS (10%; Invitrogen), and penicillinstreptomycin (100 IU/mL-100 μg/mL; Invitrogen).” left out
as §3

Assay [7] concerns human islets. In words: Glucagon secretion from perifused human islets. The assay is classed as cell-based.
Source text: as §1, with “Islets and islets cells from Q:1 all species were cultured identically (37° C. and 5% CO2) inCMRL Q:2 medium-1066 (Invitrogen), niacinamide (10 mM; Sigma), ITS (BD Biosciences), Zn2SO4 (15 μM, Sigma), GlutaMAX (2 mM; Invitrogen), Hepes (25 mM; Sigma), FBS (10%; Invitrogen), and penicillinstreptomycin (100 IU/mL-100 μg/mL; Invitrogen).” left out
as §3

The test system of assay [8] is monkey islets. Put plainly: Glucagon secretion from perifused monkey islets. In kind it is cell-based, cynomolgus monkeys (Macacca fascicularis).
Source text: as §1, with “Islets and islets cells from Q:1 all species were cultured identically (37° C. and 5% CO2) inCMRL Q:2 medium-1066 (Invitrogen), niacinamide (10 mM; Sigma), ITS (BD Biosciences), Zn2SO4 (15 μM, Sigma), GlutaMAX (2 mM; Invitrogen), Hepes (25 mM; Sigma), FBS (10%; Invitrogen), and penicillinstreptomycin (100 IU/mL-100 μg/mL; Invitrogen).” left out
as §3

The subject of assay [9] is mouse islets. Put plainly: Glucagon secretion from perifused mouse islets. In kind it is cell-based, Mice (C57BL/6).
Source text: as §1, with “Islets and islets cells from Q:1 all species were cultured identically (37° C. and 5% CO2) inCMRL Q:2 medium-1066 (Invitrogen), niacinamide (10 mM; Sigma), ITS (BD Biosciences), Zn2SO4 (15 μM, Sigma), GlutaMAX (2 mM; Invitrogen), Hepes (25 mM; Sigma), FBS (10%; Invitrogen), and penicillinstreptomycin (100 IU/mL-100 μg/mL; Invitrogen).” left out
as §3

For assay [10], the target named is T1, human P2X3 receptor (Homo sapiens, UniProt P56373).
T1 sequence (P56373 1-397): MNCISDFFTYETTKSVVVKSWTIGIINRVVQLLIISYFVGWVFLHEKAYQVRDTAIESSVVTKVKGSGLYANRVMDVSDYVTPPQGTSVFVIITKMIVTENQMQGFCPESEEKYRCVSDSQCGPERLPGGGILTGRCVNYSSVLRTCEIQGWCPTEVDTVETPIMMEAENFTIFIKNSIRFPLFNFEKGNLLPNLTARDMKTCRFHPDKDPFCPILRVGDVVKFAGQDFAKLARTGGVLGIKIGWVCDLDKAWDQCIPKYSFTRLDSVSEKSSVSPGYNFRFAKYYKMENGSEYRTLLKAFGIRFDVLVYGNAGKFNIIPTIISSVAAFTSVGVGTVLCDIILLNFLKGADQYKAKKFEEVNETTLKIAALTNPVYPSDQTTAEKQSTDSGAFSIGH
As to conditions: read-out: reported EC50 for the human P2X3 receptor; cited from earlier work.

The target in assay [11] is T2, P2X7 receptors (Homo sapiens, UniProt Q99572).
T2 sequence (Q99572 1-595): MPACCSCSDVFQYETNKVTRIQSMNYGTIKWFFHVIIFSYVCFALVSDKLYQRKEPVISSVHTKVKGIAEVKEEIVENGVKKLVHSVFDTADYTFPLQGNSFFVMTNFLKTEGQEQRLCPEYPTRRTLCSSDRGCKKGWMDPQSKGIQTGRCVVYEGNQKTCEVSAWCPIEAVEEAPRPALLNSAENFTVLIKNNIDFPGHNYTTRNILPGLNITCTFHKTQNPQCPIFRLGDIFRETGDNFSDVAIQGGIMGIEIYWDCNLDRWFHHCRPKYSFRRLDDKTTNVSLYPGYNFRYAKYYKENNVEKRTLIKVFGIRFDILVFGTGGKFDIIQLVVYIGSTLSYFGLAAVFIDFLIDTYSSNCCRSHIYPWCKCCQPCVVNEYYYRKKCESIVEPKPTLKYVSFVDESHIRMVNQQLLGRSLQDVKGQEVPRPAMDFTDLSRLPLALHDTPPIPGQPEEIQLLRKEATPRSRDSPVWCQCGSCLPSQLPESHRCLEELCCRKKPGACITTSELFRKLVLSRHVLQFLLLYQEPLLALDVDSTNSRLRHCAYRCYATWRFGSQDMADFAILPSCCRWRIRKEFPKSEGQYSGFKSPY
As to conditions: cited from earlier work.

With `Nc1ncnc2c1ncn2[C@@H]1O[C@H](COP(=O)(O)OP(=O)(O)OP(=O)(O)O)[C@@H](O)[C@H]1O` [ATP], the EC50 in [1] (3 mM and 11 mM glucose, read-out: high affinity component of the concentration response relationship for insulin release) was approximately 500 nM; in [10] it was approximately 390 nM; in [11] (read-out: EC50 for activation of P2X7 receptors), 100000 nM. The “insulin secretory response to the agonist at low glucose” value in assay [1] (3 mM glucose, ATP 100 μM (or concentration series), ATPγS 50 μM, BzATP 50 μM, α,β-methylene ATP 50 μM, ADP 100 μM, UTP 100 μM, adenosine 100 μM) is “elicited insulin secretory responses; also recorded: stimulated increases in insulin release concentration dependently; also recorded: promoted strong responses; also recorded: elicited large insulin and [Ca^2+]i, responses”. Also, in [1] (ATP 1 mM response as reference), the “response to high glucose (11 mM) compared with the increase elicited by ATP (1 mM)” value was 101%±30. Moreover, in assay [1] (ATP >1 mM), the “insulin release on increasing extracellular ATP >1 mM” value is “did not further raise insulin release”. In addition, the “insulin responses to the agonist in islets kept at high glucose” value in assay [1] (constant 11 mM glucose, ATP 100 μM, ATPγS 50 μM, BzATP 50 μM, UTP 100 μM, ADP 100 μM) was “stimulated increases in insulin release concentration dependently; also recorded: promoted strong responses”. The “effect on glucose-induced insulin secretion” value in assay [2] is “did not add to the insulin response; also recorded: not effective during abrupt increases in glucose concentration”. Also, the “insulin responses to the agonist in the nominal absence of extracellular Ca2+” value in assay [3] was “reduced; also recorded: strongly diminished”. Besides, in assay [4], the “insulin response of rat islets” value is given as “No responses to ATP were observed; also recorded: neither ATP nor any of the other purinergic agonists tested stimulated insulin release; also recorded: only high concentrations of ATP (1 mM) induced small increases in insulin release”. Further, the “insulin response of mouse islets” value in assay [5] is listed as “No responses to ATP were observed; also recorded: neither ATP nor any of the other purinergic agonists tested stimulated insulin release”. The “insulin response of pig islets” value in [6] is on record as “No responses to ATP were observed; also recorded: neither ATP nor any of the other purinergic agonists tested stimulated insulin release”. In addition, the “glucagon response of human islets” value in [7] is listed as “stimulated small increases in glucagon secretion”. Moreover, the “glucagon response of monkey islets” value in [8] was “stimulated small increases in glucagon secretion”. Also, in assay [9], the “glucagon response of mouse islets” value is “difficult to discern; also recorded: stimulated small increases in glucagon secretion”. Also, the “ATP concentrations required for activation of homomeric P2X7 receptors” value in assay [11] is more than 100.

(Values after patent publication US20170035793A1, “Use of P2X Purinergic Receptor Agonists to Enhance Insulin Secretion In Pancreatic Beta Cells” (priority 2010, published 2017).)
